Reference: US6632924B2, “Method of measuring plasma membrane targeting of GLUT4” (Whitehead Institute for Biomedical Research, priority 1999, dated 2003)

Key:
GLUT4 in adipocytes = conditions: ≦10% in the absence of insulin; cited from earlier work
[1] = tested on: GLUT4myc-GFP in 3T3-L1 adipocytes; assay: Time-lapse video fluorescence microscopy of GLUT4myc-GFP in 3T3-L1 adipocytes; assay type: cell-based, murine; conditions: 3T3-L1 adipocyte; 2.5, 5 and 10 minutes after insulin
Protocol: Time lapse video fluorescence microscopy was performed using a Nikon Diaphot 300 inverted microscope as described (Smith, G. A., et al., J Cell Biol. 135:647-660 (1996)). 3T3-L1 adipocytes expressing GLUT4myc-GFP were reseeded to 25 mm round coverslips and were incubated in serum-free DMEM for at least three hours before microscopy. Cells were maintained at 37° C. during microscopy using an aluminum chamber mounted on the stage and connected to a circulating waterbath. Images were acquired every 15 sec using a Hammamatsu CCD camera and Metamorph software (Universal Imaging Corp., West Chester, Pa.).
The GLUT4 reporter in a murine retroviral vector was used to infect 3T3-L1 fibroblasts. The infected cells underwent normal adipose differentiation (see below), and we took several approaches to confirm that the GLUT4 reporter traffics appropriately. […] In the absence of insulin, GFP fluorescence is present in the perinuclear pattern that is characteristic of GLUT4, as well as in punctate structures near the plasma membrane and throughout the cytoplasm. Lipid droplets are present in the cytoplasm, and are seen as discrete areas of reduced fluorescence intensity.

[2] = tested on: GLUT4 reporter (GLUT4myc7-GFP) in 3T3-L1 cells; assay: Flow cytometry assay of GLUT4 reporter translocation to the plasma membrane in 3T3-L1 cells; assay type: cell-based, murine; conditions: for fold increase in the proportion of total GLUT4 present at the cell surface: insulin 80 nM
Protocol: A GLUT4 translocation assay was carried out as follows: 3T3 L1 preadipocytes were infected with a retrovirus encoding a GLUT4 construct fused to green fluorescent protein (GFP) at its carboxy terminus, and containing seven myc epitope tags in the first exofacial loop. A population of cells expressing a narrow window of green fluorescence was isolated by fluorescence activated cell sorting (FACS). These cells were propagated and differentiated on 10 cm plates, and were reseeded on 6-well dishes the day prior to performing the GLUT4 translocation assay. Cells were serum starved for 3 hours, then stimulated or not with 160 nM insulin for 10 minutes. They were then placed on ice and washed with cold phosphate buffered saline with calcium and magnesium (PBS++). All subsequent steps were done at 4° C. Cells were incubated with anti-myc antibody (9E10), washed briefly with PBS++, and incubated with phycoerythrin-conjugated F(ab)2 antimouse IgG. Cells were washed with PBS++, resuspended using EDTA, and analysed by two color flow cytometry.
One protocol for carrying out the method of assessing translocation of modified GLUT4 is as follows: 3T3L1 cells are maintained at a subconfluent density, infected with retrovirus expression vectors which include DNA encoding modified GLUT4 and induced to differentiate into adipocytes. After being cultured (e.g., for 8-12 days) under appropriate conditions, the cells are reseeded onto plates (e.g., 6-well plates) and serum starved (e.g., for 3 or more hours). Some cells are stimulated by insulin (e.g., 160 nM, 10 minutes), placed on ice and washed at 4° C. with PBS++ (phosphate buffered saline containing calcium and magnesium). Anti-myc antibody (9E10, available from the American Type Culture Collection) is added to the cells ([…], 1 ½ hours, 4° C.). The cells are again washed with PBS++ at 4° C. and an […] labeled with a red fluorophore (R-phycoerythrin (R-PE) conjugated antimouse IgG, 50 μg/ml, 45 minutes, 4° C.) is added. Another washing with PBS++(4° C.) is carried out, the cells are suspended with EDTA and FACS (fluorescences activated cell scanning/sorting) is carried out.
Confluent cells were reseeded on the indicated day of differentiation to six well plates (Coming, Costar #3506) one day before use in experiments, and were starved in DMEM without fetal bovine serum for at least 3 hours before insulin stimulation. Insulin was used at 80 nM or 160 nM; no difference was noted between these concentrations in either 3T3-L1 or CHO cells. After treatment in the presence or absence of insulin for the times indicated in each figure, cells were quickly transferred to 4° C. and washed with cold phosphate buffered saline containing 0.9 mM Ca^++ and 0.5 mM Mg^++ (PBS++). All subsequent steps were carried out at 4° C., and staining of externalized myc epitope was done on adherent cells. Cells were incubated with a 1:200 dilution of anti-myc (9E10) ascites in PBS++, 2% bovine serum albumin, 4% donkey serum for 1.5 hours. Cells were then washed twice in PBS++, for 5 min. each time. They were then incubated 45 min. in 12.5 µg/ml R-phycoerythrin conjugated donkey F(ab′)2 anti-mouse IgG secondary antibody, diluted in PBS++, 2% BSA, 4% donkey serum. Cells were washed three times with PBS++, for 10 min. each time, and were resuspended by gentle scraping in PBS++, 2% BSA for flow cytometry. […]

[3] = tested on: GLUT4 reporter in CHO cells; assay: Flow cytometry assay of GLUT4 reporter translocation to the plasma membrane in CHO cells; assay type: cell-based, Chinese hamster
Protocol: CHO-K1 cells stably expressing the murine ecotropic retroviral receptor were kindly provided by David Hirsch, Roger Lawrence, and Monty Kreiger (Massachusetts Institute of Technology, Cambridge Mass.), and were maintained in Han's F-12 medium with 10% fetal bovine serum, 2 mM glutamine, 100 U/ml penicillin, and 0.1 mg/ml streptomycin (Baker, B. W., et al., (1992)). To use identical experimental conditions in CHO and 3T3-L1 cells, CHO cells were placed in the same medium used for 3T3-L1 adipocytes two days before assays of GLUT4 trafficking. Phoenix ecotropic retroviral packaging cells were a gift from Garry Nolan (Stanford University Medical Center) and VE23 ecotropic retroviral packaging cells were a gift from Merav Socolovsky (Whitehead Institute, Cambridge Mass.) (Kinsella, and Nolan, Hum Gene Ther. 7:1405-1413 (1996); Socolovsky, M., et al. J Biol Chem. 272:14009-14012 (1997)). Both retroviral packaging cell lines were cultured in DMEM, 10% fetal bovine serum, glutamine, penicillin and streptomycin as above.
Confluent cells were reseeded on the indicated day of differentiation to six well plates (Coming, Costar #3506) one day before use in experiments, and were starved in DMEM without fetal bovine serum for at least 3 hours before insulin stimulation. Insulin was used at 80 nM or 160 nM; no difference was noted between these concentrations in either 3T3-L1 or CHO cells. After treatment in the presence or absence of insulin for the times indicated in each figure, cells were quickly transferred to 4° C. and washed with cold phosphate buffered saline containing 0.9 mM Ca^++ and 0.5 mM Mg^++ (PBS++). All subsequent steps were carried out at 4° C., and staining of externalized myc epitope was done on adherent cells. Cells were incubated with a 1:200 dilution of anti-myc (9E10) ascites in PBS++, 2% bovine serum albumin, 4% donkey serum for 1.5 hours. Cells were then washed twice in PBS++, for 5 min. each time. They were then incubated 45 min. in 12.5 µg/ml R-phycoerythrin conjugated donkey F(ab′)2 anti-mouse IgG secondary antibody, diluted in PBS++, 2% BSA, 4% donkey serum. Cells were washed three times with PBS++, for 10 min. each time, and were resuspended by gentle scraping in PBS++, 2% BSA for flow cytometry. For experiments involving insulin removal, cells were chilled as above after insulin stimulation, then washed twice with 5 mM sodium acetate, 150 mM NaCl, pH 4.0 (Yang, J., et al., J Biol Chem. 267:1039310399 (1992); Kao, A. W., et al., J Biol Chem. 273:25450-25457 (1998)). Cells were rewarmed in 37° C. DMEM for the times indicated, restimulated or not with insulin, and then returned to 4° C. and chilled with cold PBS++ before staining as above.
Flow cytometry was done on FACScan or FACSCalibur cytometers (Becton-Dickinson). Appropriate compensation between the FL1 and FL2 channels was set using uninfected (GFP-negative) cells or cells stained with PE only (e.g. using a PE-conjugated anti-transferrin receptor antibody; Pharmingen). […] For each sample, data from ≧10,000 cells were collected. Median fluorescence intensities were used for quantitation, since this measure of central tendency is least sensitive to outliers. For each sample, the PE and GFP fluorescence specifically attributable to the presence of the GLUT4 reporter were determined by subtracting background fluorescences, measured using control unstained cells and cells not expressing the reporter, respectively.
Whether this recycling mechanism is present in an unrelated cell type was also assessed. This was done by infecting Chinese Hamster Ovary (CHO) cells expressing the murine ecotropic retroviral receptor with a retrovirus carrying the GLUT4 reporter, and using FACS to isolate cells falling within a narrow range of GFP fluorescence intensities. CHO cells are smaller and have less autofluorescence than 3T3-L1 adipocytes or fibroblasts. […]

[4] = CHO cells in DMEM, 80 nM insulin

Q: What does the source list for insulin?
A: proportion of GLUT4 at the cell surface in the presence of insulin (GLUT4 in adipocytes): approximately 50%; distribution of GFP fluorescence after insulin addition [1]: redistribution of fluorescence to the plasma membrane; fold increase in the proportion of total GLUT4 present at the cell surface ([2]; 3T3-L1 adipocytes, 10 min): 5.0 fold; difference in response between 80 nM and 160 nM insulin ([2]; 3T3-L1 cells): no difference; fall of the fraction of GLUT4 on the plasma membrane after the peak ([2]; all stages of 3T3-L1 differentiation, 80 nM insulin): 30% to 40%; fold increase in the proportion of total GLUT4 present at the cell surface ([2]; confluent 3T3-L1 fibroblasts, 5 min): 4.4 fold; average maximal increase in the proportion of GLUT4 at the cell surface ([2]; mature (Day 8 and 10) 3T3-L1 adipocytes, 80 nM insulin): 5.4 fold; difference in response between 80 nM and 160 nM insulin ([3]; CHO cells): no difference; kinetics of GLUT4 redistribution after insulin addition ([3]; CHO cells cultured in DME medium (25 mM glucose), 80 nM insulin): biphasic kinetics; kinetics of GLUT4 externalization after insulin addition ([3]; CHO cells cultured in F12 medium (10 mM glucose), 80 nM insulin): essentially monophasic response; time of peak GLUT4 externalization after insulin addition [3, 4]: four to five; time to steady state of cell-surface GLUT4 after insulin addition [3, 4]: twenty; peak fold increase in the proportion of GLUT4 at the cell surface versus unstimulated cells ([3]; CHO cells in DMEM, 80 nM insulin, 5 minutes after addition): 5.5 fold; part of the peak increase in cell-surface GLUT4 eliminated in the subsequent decrease ([3]; CHO cells, several experiments): 50% to 60%; fold increase in the proportion of total GLUT4 present at the cell surface ([3]; confluent CHO cells, insulin 80 nM, 8 min): 3.5 fold
